Where two headings read alike, the source gives them in different places.
Assays:
[1] = system: MCF-10A cells; test: Cytotoxicity towards normal MCF-10A mammary epithelial cells (Cell Titer-Glo); details: human, MCF-10A normal mammary epithelial cells
[2] = system: SMMC-7221; set-up: method as in PMID 23851116; details: value from earlier study; cited from earlier work
[3] = system: MDA-MB-231 cells; test: Cell survival/growth assay (Coulter cell count), MDA-MB-231 cells; format: cell-based; details: 5 days, treated/vehicle cell number ratio; for viability at 1 µM / viability at 10 µM: Homo sapiens, 120 h; for viability at 1 µM: read-out: Survival Rate (%) 1 μM; for viability at 10 µM: read-out: Survival Rate (%) 10 μM;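 for all read-outs here: cells grown in DMEM with 5% FBS, vehicle control was an equal volume of DMSO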
[4] = system: BEL-7402; set-up: method as in PMID 23851116; details: value from earlier study; cited from earlier work
[5] = system: SMMC-7221; test: MTT cell viability assay, human hepatoma carcinoma SMMC-7221 cells; format: cell-based; details: read-out: IC50 SMMC-7221
[6] = system: BEL-7402; test: MTT cell viability assay, human hepatoma carcinoma BEL-7402 cells; format: cell-based; details: 24 h treatment, concentration inhibiting cancer cell replication by 50%, tested up to 100 μM
[7] = system: MCF-10A cells; test: in vitro; details: human
[8] = system: normal cells versus tumor types; set-up: method as in PMID 12213470, PMID 15217612; details: normal cells more resistant to anti-cancer effects; cited from earlier work
[9] = target: xanthine oxidase (XOD) (Bos taurus, UniProt P80457); details: test concentrations 5, 10, 15, 25 μM; allopurinol positive control
Sequence of xanthine oxidase (XOD) (P80457 2-1332 limits assumed): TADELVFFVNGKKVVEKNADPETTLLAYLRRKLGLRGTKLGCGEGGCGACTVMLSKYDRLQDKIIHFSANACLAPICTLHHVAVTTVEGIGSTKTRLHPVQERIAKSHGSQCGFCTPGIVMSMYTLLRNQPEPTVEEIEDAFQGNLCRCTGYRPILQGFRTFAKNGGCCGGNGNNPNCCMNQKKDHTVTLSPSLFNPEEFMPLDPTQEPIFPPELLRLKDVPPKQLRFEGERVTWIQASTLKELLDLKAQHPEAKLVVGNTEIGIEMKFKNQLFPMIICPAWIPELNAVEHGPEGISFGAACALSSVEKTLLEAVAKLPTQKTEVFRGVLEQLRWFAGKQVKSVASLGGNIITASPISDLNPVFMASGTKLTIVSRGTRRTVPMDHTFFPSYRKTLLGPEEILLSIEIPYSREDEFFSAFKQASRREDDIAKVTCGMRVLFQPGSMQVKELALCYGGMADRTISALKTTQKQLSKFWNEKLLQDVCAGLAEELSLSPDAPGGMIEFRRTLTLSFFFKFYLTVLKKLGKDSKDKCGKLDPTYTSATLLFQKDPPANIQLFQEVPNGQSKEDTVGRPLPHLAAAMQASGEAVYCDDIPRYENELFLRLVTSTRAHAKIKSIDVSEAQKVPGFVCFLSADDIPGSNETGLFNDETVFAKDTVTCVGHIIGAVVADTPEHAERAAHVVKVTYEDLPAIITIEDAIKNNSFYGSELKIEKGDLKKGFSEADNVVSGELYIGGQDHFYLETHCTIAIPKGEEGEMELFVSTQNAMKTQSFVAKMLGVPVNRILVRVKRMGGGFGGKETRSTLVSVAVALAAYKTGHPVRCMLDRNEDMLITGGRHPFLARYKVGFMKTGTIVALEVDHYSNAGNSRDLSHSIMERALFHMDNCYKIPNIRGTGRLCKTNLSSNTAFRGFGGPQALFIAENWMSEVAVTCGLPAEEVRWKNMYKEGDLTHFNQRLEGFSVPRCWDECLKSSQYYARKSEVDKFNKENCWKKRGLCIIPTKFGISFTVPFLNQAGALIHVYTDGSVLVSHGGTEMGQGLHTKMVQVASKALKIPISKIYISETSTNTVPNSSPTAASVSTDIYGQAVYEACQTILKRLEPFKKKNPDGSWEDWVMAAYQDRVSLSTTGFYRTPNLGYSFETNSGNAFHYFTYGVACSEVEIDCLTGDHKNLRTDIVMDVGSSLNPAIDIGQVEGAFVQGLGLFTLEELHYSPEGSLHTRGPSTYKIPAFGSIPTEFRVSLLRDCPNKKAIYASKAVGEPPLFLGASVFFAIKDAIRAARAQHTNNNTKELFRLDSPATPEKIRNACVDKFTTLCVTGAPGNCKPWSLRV

[10] = SMMC-7221, MTT, 24 h treatment, concentration inhibiting cancer cell replication by 50%, tested up to 100 μM

Row | Structure (SMILES) | viability at 1 µM ([3]; MDA-MB-231, 1 μM) [%] | viability at 10 µM ([3]; MDA-MB-231, 10 μM) [%] | melting point [°C] | IC50 [5, 10] [µM] | IC50 [6] [µM] | further results
1 | CCOC(=O)Cn1ncc2c(Nc3ccc(NC(=O)CCl)cc3)ncnc21 [Compound 1] | 40.2 ± 3.9 | 1 ± 0.6 | – | – | – | IC50 at 72 h [1]: 5.59 ± 0.27 µM; IC50 [2]: 9.03 µM; IC50 [4]: 18.7 µM
2 | CCn1ncc2c(Cl)ncnc21 [Compound 3, 4-Chloro-1-ethyl-1H-pyrazolo[3,4-d]pyrimidine] | 86.2 ± 8.6 | 67 ± 4.8 | 76 to 77 | > 100 | > 100 | –
3 | CCn1ncc2c(NN)ncnc21 [Compound 4, 1-Ethyl-4-hydrazinyl-1H-pyrazolo[3,4-d]pyrimidine] | 66.1 | 27.8 | – | – | 25.5 ± 0.4 | IC50 at 72 h [1]: 17.4 ± 0.69 µM; IC50 ([5]; SMMC-7221, 24 h): 35.2 ± 0.4 µM; Survival Rate (%) 1 μM ([3]; MDA-MB-231, 1 μM): 66.1 ± 0.5%; Survival Rate (%) 10 μM ([3]; MDA-MB-231, 10 μM): 27.8 ± 2.4%
4 | CCn1ncc2c(NNS(=O)(=O)c3ccc(C)cc3)ncnc21 [Compound 5a, N′-(1-Ethyl-1H-pyrazolo[3,4-d]pyrimidin-4-yl)-4-methylbenzenesulfonohydrazide] | 89.1 ± 1.5 | 72.8 ± 3.9 | 186 to 187 | > 100 | > 100 | –
5 | CCn1ncc2c(NNS(=O)(=O)c3ccc([N+](=O)[O-])cc3)ncnc21 [Compound 5b, N′-(1-Ethyl-1H-pyrazolo[3,4-d]pyrimidin-4-yl)-4-nitrobenzenesulfonohydrazide] | 92.9 ± 1.5 | 68 ± 2.4 | 194 to 195 | > 100 | > 100 | –
6 | CCn1ncc2c(NNS(=O)(=O)c3ccccc3)ncnc21 [Compound 5c, N′-(1-Ethyl-1H-pyrazolo[3,4-d]pyrimidin-4-yl)benzenesulfonohydrazide] | 75.7 ± 11 | 74.7 ± 0.1 | 194 to 195 | > 100 | > 100 | –
7 | CCn1ncc2c(NNS(=O)(=O)c3ccc(Br)cc3)ncnc21 [Compound 5d, 4-Bromo-N′-(1-ethyl-1H-pyrazolo[3,4-d]pyrimidin-4-yl)benzenesulfonohydrazide] | 80.5 ± 2 | 70.9 ± 1 | 194 to 195 | > 100 | > 100 | –
8 | CCn1ncc2c(NNC(C)=O)ncnc21 [Compound 5e, N′-(1-Ethyl-1H-pyrazolo[3,4-d]pyrimidin-4-yl)acetohydrazide] | 94.8 ± 0.5 | 61.3 ± 1 | – | > 100 | > 100 | IC50 at 72 h [1]: 20.2 ± 0.81 µM
9 | CCn1ncc2c(N(NC(=O)c3ccccc3)C(=O)c3ccccc3)ncnc21 [Compound 5f, N′-Benzoyl-N′-(1-ethyl-1H-pyrazolo[3,4-d]pyrimidin-4-yl)benzohydrazide] | 102 ± 11 | 88.1 ± 1 | 144 to 146 | > 100 | > 100 | –
10 | CCn1ncc2c(NNC(=O)CCl)ncnc21 [Compound 5g, 2-Chloro-N′-(1-ethyl-1H-pyrazolo[3,4-d]pyrimidin-4-yl)acetohydrazide] | 105 ± 4.8 | 105 ± 2.9 | 202 to 204 | > 100 | > 100 | IC50 at 72 h [1]: 23.3 ± 0.71 µM
11 | Clc1ncnc2c1cnn2Cc1ccccc1 [Compound 6, 1-Benzyl-4-chloro-1H-pyrazolo[3,4-d]pyrimidine] | 77.6 ± 9.1 | 75.7 ± 1.5 | 62 to 63 | > 100 | > 100 | –
12 | NCCNc1ncnc2c1cnn2Cc1ccccc1 [Compound 7, N1-(1-Benzyl-1H/-pyrazolo[3,4-d]pyrimidin-4-yl)ethane-1,2-diamine] | 81.4 ± 7.2 | 57.5 ± 1 | – | > 100 | > 100 | –
13 | O=S(=O)(NCCNc1ncnc2c1cnn2Cc1ccccc1)c1ccccc1 [Compound 8a, N-(2-((1-Benzyl-1H-pyrazolo[3,4-d]pyrimidin-4-yl)amino)ethyl)benzenesulfonamide] | – | 58.4 ± 2.4 | – | > 100 | 66.61 ± 0.62 | –
14 | O=[N+]([O-])c1ccc(S(=O)(=O)NCCNc2ncnc3c2cnn3Cc2ccccc2)cc1 [Compound 8b, N-(2-((1-Benzyl-1H-pyrazolo[3,4-d]pyrimidin-4-yl)amino)ethyl)-4-nitrobenzenesulfonamide] | 75.7 ± 2.4 | 71.8 ± 8.5 | – | 81.46 ± 0.78 | > 100 | –
15 | O=S(=O)(NCCNc1ncnc2c1cnn2Cc1ccccc1)c1ccc(Br)cc1 [Compound 8c, N-(2-((1-benzyl-1H-pyrazolo[3,4-d]pyrimidin-4-yl)amino)ethyl)-4-bromobenzenesulfonamide] | 105 ± 8.6 | 78.5 ± 3.9 | – | > 100 | > 100 | –
16 | C=CCNC1=C2C[C@@H](C)C[C@H](OC)[C@H](O)[C@@H](C)/C=C(\C)[C@H](OC(N)=O)[C@@H](OC)/C=C\C=C(/C)C(=O)NC(=CC1=O)C2=O [Compound 17-AAG, 17-N-allylamino-17-demethoxy geldanamycin, reference compound] | 6.7 ± 0.5 | 4.8 ± 0.5 | – | 9.85 ± 0.08 | 12.4 ± 0.1 | IC50 at 72 h [7]: 0.09 ± 0.01 µM
17 | C#CCCCn1c(Cc2cc(OC)c(OC)c(OC)c2Cl)nc2c(N)nc(F)nc21 [PU24FCl] | – | – | – | – | – | Resistance of normal cells relative to tumor cells [8]: 10- to 50 fold
18 | Oc1ncnc2[nH]ncc12 [allopurinol, 4-hydroxyl-1H-pyrazolo[3,4-d]pyrimidine] | 84.3 ± 7.7 | 51.7 ± 6.7 | – | – | – | XOD inhibitory activity (in words) [9]: strong inhibitor of XOD

— publication PMC5538589, “Discovery of Novel Allopurinol Derivatives with Anticancer Activity and Attenuated Xanthine Oxidase Inhibition” (Molecules, 2016)
